Source: BindingDB's records for doi:10.1158/0008-5472.can-03-3344 (St. Jude Children'S Research Hospital, 2004)

Assay: TP_TRANSPORTER: drug resistance(Imatinib mesylate) in BCRP-expressing SaoS2 cells

## CCc1c2c(nc3ccc(O)cc13)-c1cc3c(c(=O)n1C2)COC(=O)[C@]3(O)CC [7-ETHYL-10-HYDROXY-CAMPTOTHECIN]
  IC50: 176 nM
